According to patent US20060247320A1, “Compounds for inhibiting KSP kinesin activity” (priority 2005, published 2006):
Where two headings read alike, the source gives them in different places.

Biological target: T1, KSP motor domain (Homo sapiens, UniProt P52732)
T1 sequence (P52732 18-359 limits assumed): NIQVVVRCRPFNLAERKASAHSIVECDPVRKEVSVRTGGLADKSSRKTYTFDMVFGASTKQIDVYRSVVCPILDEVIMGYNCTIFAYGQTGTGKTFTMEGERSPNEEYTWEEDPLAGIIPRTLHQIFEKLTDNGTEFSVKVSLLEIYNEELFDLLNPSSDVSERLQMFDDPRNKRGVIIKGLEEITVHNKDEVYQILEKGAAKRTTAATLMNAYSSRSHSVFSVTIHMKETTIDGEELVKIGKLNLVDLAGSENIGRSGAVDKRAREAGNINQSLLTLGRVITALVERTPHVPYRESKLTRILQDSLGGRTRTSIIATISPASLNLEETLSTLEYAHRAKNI
Experiment: biochemical
Conditions: for IC50: read-out: IC50

[1] = KSP inhibitory activity, end-point assay, class symbols (Table 1)
[2] = exact IC50 values, end-point assay (Table 2)

| SMILES | IC50 [1] | IC50 (nM) [1] | IC50 [2] |
| --- | --- | --- | --- |
| CC(C)(C)C1CCc2nc3sc(C(=O)Nc4ccc(O)cc4)cc3cc2C1 (centres unmarked) [Example 226A, 2-(1-Amino-4-Hydroxyphenyl) carboxamido-6-tert-butyl-5,6,7,8-tetrahydrothieno [2,3-b]quinoline] | 100 to 1000 nM | – | – |
| CC[C@@H](CO)NC(=O)c1cc2cc3c(nc2s1)CCC(C(C)(C)C)C3 (some centres unmarked) [Example 158] | > 10000 nM | – | – |
| CC(C)(C)C1CCc2nc3sc(C(=N)N)cc3cc2C1 (centres unmarked) [Example 69, 6-tert-butyl-5,6,7,8-tetrahydrothieno[2,3-b]quinoline-2-carboxamidine] | – | B/C | – |
| CC(C)(C)[C@@H]1CCc2nc3sc(C(=O)N[C@H](CN)c4cccc(NC(=O)c5ccco5)c4)cc3cc2C1 [Example 262, 6-tert-Butyl-5,6,7,8-tetrahydrothieno[2,3-b]quinoline-2-carboxylic acid (2-amino-1-{3-[(furan-2-carbonyl)amino]phenyl}ethyl)amide] | < 100 nM | – | – |
| CCOC(=O)Nc1cccc(C(CN)NC(=O)c2cc3cc4c(nc3s2)CCC(C(C)(C)C)C4)c1 (centres unmarked) [Example 223, (3-{2-amino-1-[(6-tert-butyl-5,6,7,8-tetrahydrothieno[2,3-b]quinoline-2-carbonyl)amino]ethyl}phenyl)carbamic acid ethyl ester] | < 100 nM | – | – |
| N#Cc1sc2nc3c(cc2c1N)CC(c1ccccc1)CC3 (centres unmarked) [Example 3] | > 10000 nM | – | – |
| C[C@@H]1CNCCN1C(=O)Nc1cccc([C@@H](CN)NC(=O)c2cc3cc4c(nc3s2)CC[C@@H](C(C)(C)C)C4)c1 [Example 277] | < 100 nM | – | 10 nM |
| CCC(C)(C)C1CCc2c(cc3cc(C#N)sc3[n+]2[O-])C1 (centres unmarked) [Example 71] | 1000 to 10000 nM | – | – |
| CC(C)CC1CCc2nc3sc(C#N)c(N)c3cc2C1 (centres unmarked) [Example 27] | 1000 to 10000 nM | – | – |
| C[C@@H](CO)NC(=O)c1cc2cc3c(nc2s1)CCC([Si](C)(C)C)C3 (stereo partly drawn) [Example 190, 5,6,7,8-Tetrahydro-N-(2-hydroxy-1(S)-methylethyl)-6-(Trimethylsilyl)thieno[2,3-b]quinoline-2-Carboxamide] | – | B/C | – |
| CCCCC1CCc2nc3sc(C#N)c(N)c3cc2C1 (centres unmarked) [Example 32] | > 10000 nM | – | – |
| CC(C)(C)C1CCc2nc3sc(C(=O)Nc4ccc(N)cc4)cc3cc2C1 (centres unmarked) [Example 226F] | 100 to 1000 nM | – | – |
| CC(C)(C)[C@@H]1CCc2nc3sc(C(=O)N[C@H](CN)c4cccc(NC(=O)c5nsc(Cl)c5Cl)c4)cc3cc2C1 [Example 253A] | 100 to 1000 nM | – | – |
| CC(C)(C)[C@@H]1CCc2nc3sc(C(=O)N[C@H](CN)c4ccc(NC(=O)c5cnccn5)cc4)cc3cc2C1 [Example 269, 6(R)-tert-Butyl-5,6,7,8-tetrahydro-thieno[2,3-b]quinoline-2-carboxylic acid (2-amino-1(S)-{4-[(pyrazine-2-carbonyl)-amino]-phenyl}-ethyl)-amide] | < 100 nM | – | – |
| CC(C)(C)C1CCc2nc3sc(C#N)nc3cc2C1 (centres unmarked) [Example 130, 7-tert-Butyl-5,6,7,8-tetrahydrothiazolo[5,4-b]quinoline-2-carbonitrile] | 1000 to 10000 nM | – | – |
| Cc1oncc1C(=O)Nc1cccc([C@@H](CN)NC(=O)c2cc3cc4c(nc3s2)CC[C@@H](C(C)(C)C)C4)c1 [Example 233] | < 100 nM | – | – |
| CC(C)(C)C1CCc2nc3sc(C(=O)N[C@H](CN)Cc4ccccc4)cc3cc2C1 (some centres unmarked) [Example 179] | 100 to 1000 nM | – | – |
| C[C@@H]1CN[C@@H](C)CN1C(=O)Nc1cccc([C@@H](CN)NC(=O)c2cc3cc4c(nc3s2)CC[C@@H](C(C)(C)C)C4)c1 [Example 278] | 100 to 1000 nM | – | – |
| Cc1cccc([C@@H](CN)NC(=O)c2cc3cc4c(nc3s2)CCC(C(C)(C)C)C4)c1 (some centres unmarked) [Example 220] | < 100 nM | – | – |
| Cc1cnc(C(=O)Nc2cccc([C@@H](CN)NC(=O)c3cc4cc5c(nc4s3)CC[C@@H](C(C)(C)C)C5)c2)cn1 [Example 259] | < 100 nM | – | 17 nM |
| CC(C)(C)[C@@H]1CCc2nc3sc(C(=O)N[C@H](CN)c4cccc(NC(=O)c5ncc[nH]5)c4)cc3cc2C1 [Example 247] | < 100 nM | – | – |
| CC(C)(C)C1CCc2nc3sccc3cc2C1 (centres unmarked) [Example 105, 6-tert-Butyl-5,6,7,8-tetrahydrothieno[2,3-b]quinoline] | 1000 to 10000 nM | – | – |
| CCC(C)(C)C1CCc2nc3sc(C(N)=O)cc3c(O)c2C1 (centres unmarked) [Example 116] | > 10000 nM | – | – |
| CC(=O)Nc1cccc(C(CN)NC(=O)c2cc3cc4c(nc3s2)CCC(C(C)(C)C)C4)c1 (centres unmarked) [Example 222, 6-tert-butyl-5,6,7,8-tetrahydrothieno[2,3-b]quinoline-2-carboxylic acid [1-(3-acetylaminophenyl)-2-aminoethyl]amide] | < 100 nM | – | – |
| CC(C)CC(C)(C)C1CCc2nc3sc(C#N)c(N)c3cc2C1 (centres unmarked) [Example 8] | > 10000 nM | – | – |
| Cn1nccc1C(=O)Nc1cccc([C@@H](CNCCO)NC(=O)c2cc3cc4c(nc3s2)CC[C@@H](C(C)(C)C)C4)c1 [Example 267] | 100 to 1000 nM | – | – |
| CCC1Cc2nc3sc(C#N)c(N)c3cc2CC1C(C)(C)C (centres unmarked) [Example 205, 3-Amino-6-tert-butyl-7-ethyl-5,6,7,8-tetrahydrothieno[2,3-b]quinoline-2-carbonitrile] | 1000 to 10000 nM | – | – |

| SMILES | IC50 [1] | IC50 (nM) [1] | IC50 [2] |
| --- | --- | --- | --- |
| CC(C)(C)C1CCc2nc3sc(C(=O)NC(CN)c4cccc(NC(=O)c5cnccn5)c4)cc3cc2C1 (centres unmarked) [Example 227, 6-tert-Butyl-5,6,7,8-tetrahydrothieno[2,3-b]quinoline-2-carboxylic acid (2-amino-1-{3-[(pyrazine-2-carbonyl)amino]phenyl}ethyl)amide] | < 100 nM | – | 21 nM |
| CCC(CC)C1CCc2nc3sc(C#N)c(N)c3cc2C1 (centres unmarked) [Example 26] | 100 to 1000 nM | – | – |
| CC(CO)NC(=O)c1cc2cc3c(nc2s1)CCC(C(C)(C)C)C3 (centres unmarked) [Example 83] | 100 to 1000 nM | – | – |
| CC(C)(C)[C@@H]1CCc2nc3sc(C(=O)N[C@H](CN)c4cccc(NC(=O)c5ncco5)c4)cc3cc2C1 [Example 263, 6-tert-butyl-5,6,7,8-tetrahydrothieno[2,3-b]quinoline-2-carboxylic acid (2-amino-1-{3-[(oxazole-2-carbonyl)amino]phenyl}ethyl)amide] | < 100 nM | – | – |
| CCCC1(CCC)CCc2nc3sc(C#N)c(N)c3cc2C1 [Example 16] | > 10000 nM | – | – |
| CC(C)(C)C1CCc2nc3sc(C(=O)N[C@H](CO)c4ccccc4)cc3cc2C1 (some centres unmarked) [Example 160] | 1000 to 10000 nM | – | – |
| Cn1ccc(C(=O)Nc2cccc([C@@H](CNCCO)NC(=O)c3cc4cc5c(nc4s3)CC[C@@H](C(C)(C)C)C5)c2)n1 [Example 268] | < 100 nM | – | – |
| CC(C)(C)C1CCc2nc3sc(C(=O)N[C@H](CN)c4cccc(N)c4)cc3cc2C1 (some centres unmarked) [Example 217] | < 100 nM | – | – |
| N#Cc1sc2nc3c(cc2c1N)CCCC3 [Example 45] | > 10000 nM | – | – |
| CC(C1CCc2nc3sc(C#N)c(N)c3cc2C1)C(C)(C)C (centres unmarked) [Example 23] | > 10000 nM | – | – |
| CC(C)(C)C(C)(C)C1CCc2nc3sc(C#N)c(N)c3cc2C1 (centres unmarked) [Example 9] | 1000 to 10000 nM | – | – |
| CC[C@@H](C#N)NC(=O)c1cc2cc3c(nc2s1)CCC(C(C)(C)C)C3 (stereo partly drawn) [Example 166, 6-tert-Butyl-5,6,7,8-tetrahydrothieno[2,3-b]quinoline-2-carboxylic acid [(1S)-1-cyanopropyl)amide] | > 10000 nM | – | – |
| CCCCCC1CCc2nc3sc(C#N)c(N)c3cc2C1 (centres unmarked) [Example 19] | > 10000 nM | – | – |
| CC(=O)Nc1nc2cc3c(nc2s1)CCC(C(C)(C)C)C3 (centres unmarked) [Example 135, N-(7-tert-Butyl-5,6,7,8-tetrahydrothiazolo[5,4-b]quinolin-2-yl)acetamide] | 100 to 1000 nM | – | – |
| Cc1cc(C(=O)Nc2cccc([C@@H](CN)NC(=O)c3cc4cc5c(nc4s3)CC[C@@H](C(C)(C)C)C5)c2)n[nH]1 [Example 242] | < 100 nM | – | – |
| CC(C)(C)[C@@H]1CCc2nc3sc(C(=O)N[C@H](CN)c4cccc(NC(=O)c5nsnc5N)c4)cc3cc2C1 [Example 255] | < 100 nM | – | – |
| N#Cc1sc2nc3c(cc2c1N)CN(CC1CC1)CC3 [Example 55] | > 10000 nM | – | – |
| C[C@@H](CN)NC(=O)c1cc2cc3c(nc2s1)CCC(C(C)(C)C)C3 (some centres unmarked) [Example 176] | < 100 nM | – | – |
| CC(C)(C)C1CCc2nc3sc(-c4ncc[nH]4)cc3cc2C1 (centres unmarked) [Example 181, 6-tert-Butyl-2-(1H-imidazol-2-yl)-5,6,7,8-tetrahydrothieno[2,3-b]quinoline] | 100 to 1000 nM | – | – |
| Cn1cnc(C(=O)Nc2cccc([C@@H](CN)NC(=O)c3cc4cc5c(nc4s3)CC[C@@H](C(C)(C)C)C5)c2)c1 [Example 249] | < 100 nM | – | – |
| CN1CCN(C(=O)Nc2cccc([C@@H](CN)NC(=O)c3cc4cc5c(nc4s3)CC[C@@H](C(C)(C)C)C5)c2)CC1 [Example 275, 6(R)-tert-butyl-5,6,7,8-tetrahydro-thieno[2,3-b]quinoline-2-carboxylic acid (2-amino-1(S)-{3-[(4-methyl-piperazine-1-carbonyl)-amino]-phenyl}-ethyl)-amide] | < 100 nM | – | – |
| CC(C)(C)C1CCc2nc3sc(C(=O)N[C@H](CO)Cc4ccc(O)cc4)cc3cc2C1 (stereo partly drawn) [Example 161, 6-tert-Butyl-5,6,7,8-tetrahydrothieno[2,3-b]quinoline-2-carboxylic acid [2-hydroxy-(1S)-1-(4-hydroxybenzyl)ethyl]amide] | > 10000 nM | – | – |
| CC(C)(C)C1CCc2nc3sc(-c4ncc(CO)o4)cc3cc2C1 (centres unmarked) [Example 185, [2-(6-tert-Butyl-5,6,7,8-tetrahydrothieno[2,3-b]quinolin-2-yl)oxazol-5-yl]methanol] | 1000 to 10000 nM | – | – |
| CC(C)C1Cc2cc3c(N)c(C#N)sc3nc2CC1C (centres unmarked) [Example 207, 3-Amino-6-isopropyl-7-methyl-5,6,7,8-tetrahydro-thieno[2,3-b]quinoline-2-carbonitrile] | > 10000 nM | – | – |
| CC(C)(C)C1CCc2nc3sc(C(=O)NCc4ccccc4)cc3cc2C1 (centres unmarked) [Example 78] | > 10000 nM | – | – |
| CCC1CCc2nc3sc(C#N)c(N)c3cc2C1 (centres unmarked) [Example 17] | 1000 to 10000 nM | – | – |
